Where a name gives a salt, the structure may show the parent alone.

One assay has as its target T1, human MRGPRX2 (Homo sapiens, UniProt Q96LB1).
T1 sequence (Q96LB1 1-330): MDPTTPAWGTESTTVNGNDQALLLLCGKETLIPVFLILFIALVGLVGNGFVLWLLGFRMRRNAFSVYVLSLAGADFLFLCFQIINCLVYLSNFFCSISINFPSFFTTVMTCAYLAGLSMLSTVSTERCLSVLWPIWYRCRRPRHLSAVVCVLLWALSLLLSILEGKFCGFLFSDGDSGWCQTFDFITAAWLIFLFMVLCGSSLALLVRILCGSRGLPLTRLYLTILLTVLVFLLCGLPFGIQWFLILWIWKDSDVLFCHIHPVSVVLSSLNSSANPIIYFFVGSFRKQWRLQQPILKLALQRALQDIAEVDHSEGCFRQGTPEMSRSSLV
Description: Ca2+ mobilization assay (FLIPR TETRA): inhibition of Cortistatin-14 mediated MRGPRX2 activation.
Details: not given
The compound `CC(C(=O)Nc1ccc(Oc2ccc[nH]c2=O)cn1)N1CCC(F)(F)[C@@H](c2ccc(=O)[nH]c2)C1` (stereo partly drawn) [Example 72, 2-((S)-4,4-difluoro-3-(6-oxo-1,6-dihydropyridin-3-yl)piperidin-1-yl)-N-(5-((2-oxo-1,2-dihydropyridin-3-yl)oxy)pyridin-2-yl)propanamide] gave an IC50 of 10 to 100 nM.

Compound `C[C@@H](C(=O)Nc1cnc(Oc2ccc(F)cc2F)cn1)N1CCC(F)(F)[C@@H](c2ccc(=O)[nH]c2)C1` [Example 85, (S)-2-((S)-4,4-difluoro-3-(6-oxo-1,6-dihydropyridin-3-yl)piperidin-1-yl)-N-(5-(2,4-difluorophenoxy)pyrazin-2-yl)propanamide] returned an IC50 of no more than 10 nM.

`CC(C(=O)Nc1ccc(F)cn1)N1CCC(F)(F)C(c2cc[n+]([O-])c(C(O)C(F)(F)F)c2)C1` (stereo not drawn) [Example 256, 4-(4,4-difluoro-1-(1-((5-fluoropyridin-2-yl)amino)-1-oxopropan-2-yl)piperidin-3-yl)-2-(2,2,2-trifluoro-1-hydroxyethyl)pyridine 1-oxide] displayed an IC50 of 10 to 100 nM.

As to `C[C@@H](C(=O)Nc1ccc(Oc2cc(F)c(F)cc2F)cn1)N1CCC(F)(F)[C@@H](c2cc[n+]([O-])cc2)C1` [Example 124, 4-((S)-4,4-difluoro-1-((S)-1-oxo-1-((5-(2,4,5-trifluorophenoxy)pyridin-2-yl)amino)propan-2-yl)piperidin-3-yl)pyridine 1-oxide], the IC50 was no more than 10 nM.

Regarding `C[C@@H](C(=O)Nc1ccc(Oc2cccnc2)cn1)N1CCC(F)(F)[C@@H](c2ccc(=O)[nH]c2)C1` [Example 59, (S)-2-((S)-4,4-difluoro-3-(6-oxo-1,6-dihydropyridin-3-yl)piperidin-1-yl)-N-(5-(pyridin-3-yloxy)pyridin-2-yl)propanamide], the IC50 lay in the range of 100 to 3160 nM.

In turn, `CC(C(=O)Nc1ccc(Cc2ccccn2)cn1)N1CCC(F)(F)[C@@H](c2ccc(=O)[nH]c2)C1` (stereo partly drawn) [Example 57, 2-((S)-4,4-difluoro-3-(6-oxo-1,6-dihydropyridin-3-yl)piperidin-1-yl)-N-(5-(pyridin-2-ylmethyl)pyridin-2-yl)propanamide hydrochloride] gave an IC50 of 100 to 3160 nM.

For the compound `C[C@@H](C(=O)Nc1cnc(C2CC2)cn1)N1CCC(F)(F)[C@@H](c2ccc(=O)[nH]c2)C1` [Example 70, (S)-N-(5-cyclopropyl-pyrazin-2-yl)-2-((S)-4,4-difluoro-3-(6-oxo-1,6-dihydropyridin-3-yl)piperidin-1-yl)propanamide], the IC50 lay within 100 to 3160 nM.

As to `C[C@@H](C(=O)Nc1ccc(Oc2ccc(F)cc2F)cn1)[C@H]1CCC[C@@H](c2cc[n+]([O-])cc2)C1` [Example 289, 4-((1R,3S)-3-((R)-1-((5-(2,4-difluorophenoxy)pyridin-2-yl)amino)-1-oxopropan-2-yl)cyclohexyl)pyridine 1-oxide], the IC50 is no more than 10 nM.

`C[C@@H](C(=O)Nc1ccc(Oc2ccc(F)cc2)cn1)N1CCC(F)(F)[C@@H](c2cc[n+]([O-])cc2)C1` [Example 114, 4-((S)-4,4-difluoro-1-((S)-1-((5-(4-fluorophenoxy)pyridin-2-yl)amino)-1-oxopropan-2-yl)piperidin-3-yl)pyridine 1-oxide] gave an IC50 of no more than 10 nM.

In turn, `C[C@@H](C(=O)Nc1cnc(Oc2ccc(F)cc2F)cn1)N1CCC(F)(F)[C@@H](c2cc[n+]([O-])cc2)C1` [Example 132, 4-((S)-1-((S)-1-((5-(2,4-difluorophenoxy)pyrazin-2-yl)amino)-1-oxopropan-2-yl)-4,4-difluoropiperidin-3-yl)pyridine 1-oxide] yielded an IC50 of no more than 10 nM.

`C[C@@H](C(=O)Nc1cnc(Oc2cc(F)c(F)cc2F)cn1)N1CCC(F)(F)[C@@H](c2cc[n+]([O-])cc2)C1` [Example 120, 4-((S)-4,4-difluoro-1-((S)-1-oxo-1-((5-(2,4,5-trifluorophenoxy)pyrazin-2-yl)amino)propan-2-yl)piperidin-3-yl)pyridine 1-oxide]: the IC50 was no more than 10 nM.

Staying with this assay, now noted: […]; agonist Cortistatin-14 at 4×EC50; 30 min incubation at 37° C.; mean of a minimum of 2 experiments.
In turn, `C[C@@H](C(=O)Nc1cnc(Oc2ccc(F)cc2F)cn1)N1CCC(F)(F)[C@@H](c2cc[n+]([O-])cc2)C1` [Example 132, 4-((S)-1-((S)-1-((5-(2,4-difluorophenoxy)pyrazin-2-yl)amino)-1-oxopropan-2-yl)-4,4-difluoropiperidin-3-yl)pyridine 1-oxide] returned a pIC50 of 8.6.
